Reference: article PMC4441267

Tests used:
[1] = CuAAC macrocyclisation of azide/terminal alkyne linear peptidomimetics to 1,4-triazole (CuI 2 eq, DIPEA 3 eq, Ar-degassed), then Boc removal (TMSCl/MeOH GP4; HCl/dioxane GP5 for A13w, J13w); conditions: THF (reflux), 1.2 mM, 66.0 °C, 18.0 h, 2 steps
[2] = RuAAC macrocyclisation of azide/terminal alkyne linear peptidomimetics to 1,5-triazole ([Cp*RuCl]4 0.1 eq, Ar-degassed), then Boc removal (TMSCl/MeOH GP4 or HCl/dioxane GP5); conditions: toluene (reflux), 1.25 mM, 111.0 °C, 18.0 h, 2 steps

COC(=O)[C@@H]1CNC(=O)[C@H](Cc2ccccc2)n2cc(nn2)CCC(=O)NCC[C@H](NC(=O)OC(C)(C)C)C(=O)N1 [Boc-Dab(4-pentynoyl)-Dap(N3-Phe)-OMe] gave a ring closure, yield over several steps ([1]; from C#CCCC(=O)NCC[C@H](NC(=O)OC(C)(C)C)C(=O)N[C@@H](CNC(=O)[C@H](Cc1ccccc1)N=[N+]=[N-])C(=O)OC, 17-membered ring) of 81%.

Work on COC(=O)[C@@H]1CCCCn2cc(nn2)CCC(=O)NCC[C@H](NC(=O)OC(C)(C)C)C(=O)N1 [Boc-Dab(4-pentynoyl)-Lys(N3)-OMe] yielded a ring closure, yield over several steps ([1]; from C#CCCC(=O)NCC[C@H](NC(=O)OC(C)(C)C)C(=O)N[C@@H](CCCCN=[N+]=[N-])C(=O)OC, 17-membered ring) of 62%.

For COC(=O)[C@@H]1CCCCNC(=O)[C@H](Cc2ccccc2)n2cc(nn2)CCC(=O)NCC[C@H](NC(=O)OC(C)(C)C)C(=O)N1 [Boc-Dab(4-pentynoyl)-Lys(N3-Phe)-OMe], the ring closure, yield over several steps ([1]; from C#CCCC(=O)NCC[C@H](NC(=O)OC(C)(C)C)C(=O)N[C@@H](CCCCNC(=O)[C@H](Cc1ccccc1)N=[N+]=[N-])C(=O)OC, 20-membered ring) was 91%.

COC(=O)[C@@H]1CCCn2cc(nn2)CCC(=O)NCC[C@H](NC(=O)OC(C)(C)C)C(=O)N1 [Boc-Dab(4-pentynoyl)-Orn(N3)-OMe] gave a ring closure, yield over several steps ([1]; from C#CCCC(=O)NCC[C@H](NC(=O)OC(C)(C)C)C(=O)N[C@@H](CCCN=[N+]=[N-])C(=O)OC, 16-membered ring) of 99%.

For COC(=O)[C@@H]1CNC(=O)[C@H](Cc2ccccc2)n2cc(nn2)CCCC(=O)NCC[C@H](NC(=O)OC(C)(C)C)C(=O)N1 [Boc-Dab(5-hexynoyl)-Dap(N3-Phe)-OMe], the ring closure, yield over several steps ([1]; from C#CCCCC(=O)NCC[C@H](NC(=O)OC(C)(C)C)C(=O)N[C@@H](CNC(=O)[C@H](Cc1ccccc1)N=[N+]=[N-])C(=O)OC, 18-membered ring) was 70%.

For COC(=O)[C@@H]1CCCCn2cc(nn2)CCCC(=O)NCC[C@H](NC(=O)OC(C)(C)C)C(=O)N1 [Boc-Dab(5-hexynoyl)-Lys(N3)-OMe], the ring closure, yield over several steps ([1]; from C#CCCCC(=O)NCC[C@H](NC(=O)OC(C)(C)C)C(=O)N[C@@H](CCCCN=[N+]=[N-])C(=O)OC, 18-membered ring) was 99%.

For COC(=O)[C@@H]1CCCCNC(=O)[C@H](Cc2ccccc2)n2cc(nn2)CCCC(=O)NCC[C@H](NC(=O)OC(C)(C)C)C(=O)N1 [Boc-Dab(5-hexynoyl)-Lys(N3-Phe)-OMe], the ring closure, yield over several steps ([1]; from C#CCCCC(=O)NCC[C@H](NC(=O)OC(C)(C)C)C(=O)N[C@@H](CCCCNC(=O)[C@H](Cc1ccccc1)N=[N+]=[N-])C(=O)OC, 21-membered ring) was 88%.

With COC(=O)[C@@H]1CCCn2cc(nn2)CCCC(=O)NCC[C@H](NC(=O)OC(C)(C)C)C(=O)N1 [Boc-Dab(5-hexynoyl)-Orn(N3)-OMe] the ring closure, yield over several steps ([1]; from C#CCCCC(=O)NCC[C@H](NC(=O)OC(C)(C)C)C(=O)N[C@@H](CCCN=[N+]=[N-])C(=O)OC, 17-membered ring) was 60%.

With COC(=O)[C@@H]1CNC(=O)[C@H](Cc2ccccc2)n2cc(nn2)CNC(=O)NCC[C@H](NC(=O)OC(C)(C)C)C(=O)N1 [Boc-Dab(CONH-propargyl)-Dap(N3-Phe)-OMe] the ring closure, yield over several steps ([1]; from C#CCNC(=O)NCC[C@H](NC(=O)OC(C)(C)C)C(=O)N[C@@H](CNC(=O)[C@H](Cc1ccccc1)N=[N+]=[N-])C(=O)OC, 17-membered ring) was 64%.

With COC(=O)[C@@H]1CCCCn2cc(nn2)CNC(=O)NCC[C@H](NC(=O)OC(C)(C)C)C(=O)N1 [Boc-Dab(CONH-propargyl)-Lys(N3)-OMe] the ring closure, yield over several steps ([1]; from C#CCNC(=O)NCC[C@H](NC(=O)OC(C)(C)C)C(=O)N[C@@H](CCCCN=[N+]=[N-])C(=O)OC, 17-membered ring) was 99%.

COC(=O)[C@@H]1CCCCNC(=O)[C@H](Cc2ccccc2)n2cc(nn2)CNC(=O)NCC[C@H](NC(=O)OC(C)(C)C)C(=O)N1 [Boc-Dab(CONH-propargyl)-Lys(N3-Phe)-OMe] gave a ring closure, yield over several steps ([1]; from C#CCNC(=O)NCC[C@H](NC(=O)OC(C)(C)C)C(=O)N[C@@H](CCCCNC(=O)[C@H](Cc1ccccc1)N=[N+]=[N-])C(=O)OC, 20-membered ring) of 80%.

Work on COC(=O)[C@@H]1CCCn2cc(nn2)CNC(=O)NCC[C@H](NC(=O)OC(C)(C)C)C(=O)N1 [Boc-Dab(CONH-propargyl)-Orn(N3)-OMe] yielded a ring closure, yield over several steps ([1]; from C#CCNC(=O)NCC[C@H](NC(=O)OC(C)(C)C)C(=O)N[C@@H](CCCN=[N+]=[N-])C(=O)OC, 16-membered ring) of 29%.

For COC(=O)[C@@H]1CNC(=O)[C@H](Cc2ccccc2)n2cc(nn2)CCC(=O)NC[C@H](NC(=O)OC(C)(C)C)C(=O)N1 [Boc-Dap(4-pentynoyl)-Dap(N3-Phe)-OMe], the ring closure, yield over several steps ([1]; from C#CCCC(=O)NC[C@H](NC(=O)OC(C)(C)C)C(=O)N[C@@H](CNC(=O)[C@H](Cc1ccccc1)N=[N+]=[N-])C(=O)OC, 16-membered ring) was 83%.

Compound COC(=O)[C@@H]1CCCCn2cc(nn2)CCC(=O)NC[C@H](NC(=O)OC(C)(C)C)C(=O)N1 [Boc-Dap(4-pentynoyl)-Lys(N3)-OMe] has a ring closure, yield over several steps ([1]; from C#CCCC(=O)NC[C@H](NC(=O)OC(C)(C)C)C(=O)N[C@@H](CCCCN=[N+]=[N-])C(=O)OC, 16-membered ring) of 59%.

For COC(=O)[C@@H]1CCCCNC(=O)[C@H](Cc2ccccc2)n2cc(nn2)CCC(=O)NC[C@H](NC(=O)OC(C)(C)C)C(=O)N1 [Boc-Dap(4-pentynoyl)-Lys(N3-Phe)-OMe], the ring closure, yield over several steps ([1]; from C#CCCC(=O)NC[C@H](NC(=O)OC(C)(C)C)C(=O)N[C@@H](CCCCNC(=O)[C@H](Cc1ccccc1)N=[N+]=[N-])C(=O)OC, 19-membered ring) was 99%.

Compound COC(=O)[C@@H]1CCCn2cc(nn2)CCC(=O)NC[C@H](NC(=O)OC(C)(C)C)C(=O)N1 [Boc-Dap(4-pentynoyl)-Orn(N3)-OMe] has a ring closure, yield over several steps ([1]; from C#CCCC(=O)NC[C@H](NC(=O)OC(C)(C)C)C(=O)N[C@@H](CCCN=[N+]=[N-])C(=O)OC, 15-membered ring) of 53%.

Compound COC(=O)[C@@H]1CCCn2nncc2CNC(=O)NCCC[C@H](N)C(=O)N1 [Boc-Orn(CONH-propargyl)-Orn(N3)-OMe] has a ring closure, yield over several steps ([2]; from C#CCNC(=O)NCCC[C@H](NC(=O)OC(C)(C)C)C(=O)N[C@@H](CCCN=[N+]=[N-])C(=O)OC, 16-membered ring) of 99%.

Work on COC(=O)[C@@H]1Cc2ccc(cc2)-n2nncc2CNC(=O)NCCC[C@H](N)C(=O)N1 [Boc-Orn(CONH-propargyl)-Phe(4-N3)-OMe] yielded a ring closure, yield over several steps ([2]; from C#CCNC(=O)NCCC[C@H](NC(=O)OC(C)(C)C)C(=O)N[C@@H](Cc1ccc(N=[N+]=[N-])cc1)C(=O)OC, 18-membered ring) of 46%.

For COC(=O)[C@@H]1CCCCn2nncc2CCC(=O)Nc2ccc(cc2)C[C@H](N)C(=O)N1 [Boc-Phe(4-NH-4-pentynoyl)-Lys(N3)-OMe], the ring closure, yield over several steps ([2]; from C#CCCC(=O)Nc1ccc(C[C@H](NC(=O)OC(C)(C)C)C(=O)N[C@@H](CCCCN=[N+]=[N-])C(=O)OC)cc1, 19-membered ring) was 71%.

Compound COC(=O)[C@@H]1CCCCNC(=O)[C@H](Cc2ccccc2)n2nncc2CCC(=O)Nc2ccc(cc2)C[C@H](N)C(=O)N1 [Boc-Phe(4-NH-4-pentynoyl)-Lys(N3-Phe)-OMe] has a ring closure, yield over several steps ([2]; from C#CCCC(=O)Nc1ccc(C[C@H](NC(=O)OC(C)(C)C)C(=O)N[C@@H](CCCCNC(=O)[C@H](Cc2ccccc2)N=[N+]=[N-])C(=O)OC)cc1, 22-membered ring) of 57%.

For COC(=O)[C@@H]1CCCn2nncc2CCC(=O)Nc2ccc(cc2)C[C@H](N)C(=O)N1 [Boc-Phe(4-NH-4-pentynoyl)-Orn(N3)-OMe], the ring closure, yield over several steps ([2]; from C#CCCC(=O)Nc1ccc(C[C@H](NC(=O)OC(C)(C)C)C(=O)N[C@@H](CCCN=[N+]=[N-])C(=O)OC)cc1, 18-membered ring) was 44%.

With COC(=O)[C@@H]1CNC(=O)[C@H](Cc2ccccc2)n2nncc2CCCC(=O)Nc2ccc(cc2)C[C@H](N)C(=O)N1 [Boc-Phe(4-NH-5-hexynoyl)-Dap(N3-Phe)-OMe] the ring closure, yield over several steps ([2]; from C#CCCCC(=O)Nc1ccc(C[C@H](NC(=O)OC(C)(C)C)C(=O)N[C@@H](CNC(=O)[C@H](Cc2ccccc2)N=[N+]=[N-])C(=O)OC)cc1, 20-membered ring) was 15%.

With COC(=O)[C@@H]1CCCCn2nncc2CCCC(=O)Nc2ccc(cc2)C[C@H](N)C(=O)N1 [Boc-Phe(4-NH-5-hexynoyl)-Lys(N3)-OMe] the ring closure, yield over several steps ([2]; from C#CCCCC(=O)Nc1ccc(C[C@H](NC(=O)OC(C)(C)C)C(=O)N[C@@H](CCCCN=[N+]=[N-])C(=O)OC)cc1, 20-membered ring) was 66%.

For COC(=O)[C@@H]1CCCCNC(=O)[C@H](Cc2ccccc2)n2nncc2CCCC(=O)Nc2ccc(cc2)C[C@H](N)C(=O)N1 [Boc-Phe(4-NH-5-hexynoyl)-Lys(N3-Phe)-OMe], the ring closure, yield over several steps ([2]; from C#CCCCC(=O)Nc1ccc(C[C@H](NC(=O)OC(C)(C)C)C(=O)N[C@@H](CCCCNC(=O)[C@H](Cc2ccccc2)N=[N+]=[N-])C(=O)OC)cc1, 23-membered ring) was 50%.

For COC(=O)[C@@H]1CCCn2nncc2CCCC(=O)Nc2ccc(cc2)C[C@H](N)C(=O)N1 [Boc-Phe(4-NH-5-hexynoyl)-Orn(N3)-OMe], the ring closure, yield over several steps ([2]; from C#CCCCC(=O)Nc1ccc(C[C@H](NC(=O)OC(C)(C)C)C(=O)N[C@@H](CCCN=[N+]=[N-])C(=O)OC)cc1, 19-membered ring) was 68%.
